This passage reports IC50 and Kd results from patent US8802866B2, “Pyridinylimidazolone derivatives for the inhibition of PI3 kinases” (Merck Patent GmbH, priority 2009, dated 2014).

For orientation: pIC50 means −log10 of the IC50, conventionally taken in molar units. The pKd is the negative decadic logarithm of the Kd, by convention in mol/L.

pIC50, pKd: −log10 of the molar value.

Test [1] deals with PI3Kalpha (Homo sapiens, UniProt P42336). Kind of test: Biochemical PI3Kalpha assay (neomycin SPA, lipid phosphorylation). The note with it: human recombinant GST-PI3K. The method, then:
(§1) The efficacy of the compounds according to the invention in the inhibition of PI3K-induced lipid phosphorylation can be investigated in the following binding assay. The assay combines scintillation proximity assay (SPA) technology (Amersham) with the ability of neomycin (a polycationic antibiotic) to bind phospholipids with high affinity and specificity. […] The coating of SPA beads with neomycin allows the detection of phosphorylated lipid substrates after incubation with recombinant PI3K and radioactive ATP in the same well by trapping the radioactive phospholipids by the SPA beads owing to their specific binding to neomycin. […] After incubation at room temperature for 120 minutes with gentle stirring, the reaction was stopped by addition of 200 μl of a solution comprising 250 μg of neomycin-coated PVT-SPA beads, ATP 60 mM and EDTA 6.2 mM in PBS. The assay is incubated at room temperature for a further 60 minutes with gentle stirring in order to enable binding of the phospholipids to the neomycin-SPA beads. After precipitation of the neomycin-coated PVT-SPA beads over 5 minutes at 1500×g, radioactive Ptdlns(3)P is quantified by scintillation counting in a Wallac Micro-Beta™ plate counter.

In test [2] the target is PI3Kbeta (Homo sapiens, UniProt P42338). Kind of test: Biochemical PI3Kbeta assay (neomycin SPA, lipid phosphorylation). The note with it: human recombinant GST-PI3K. On the procedure: as §1
The target of test [3] is recombinant PI3Kalpha (shortened form of the catalytic subunit) (Homo sapiens, UniProt P42336). As to the kind of experiment: BIACORE PI3K binding assay (SPR). The note with it: 25° C. On the procedure:
SPR measurements of the binding affinities and binding kinetics on PI3Kalpha surfaces with the aid of Biacore systems. The experiments are carried out on a Biacore S51 “Compound Characterization” or a Biacore T100 instrument utilising the default application “Kinetics/Affinity” Experimental conditions: recombinant PI3Kalpha (shortened form of the catalytic subunit, missing N terminal from about 100 to 150 aa, Mw about 110 kDa, prepared by Proteros Biostructures GmbH) is immobilised on Biacore CM5 chips (25° C., flow rate: 10 μl/min, utilising amine coupling at pH 7.40—Biacore Standard protocol). PI3Kalpha is employed in concentrations between 10 and 25 μg/ml. Depending on the duration of the injection time, immobilisation levels from 1700 to 11000 RU are achieved. The substances to be measured are added in the form of a titration series. The substance concentration is doubled for each subsequent injection. 10 different substance concentrations which cover a 500-fold dilution range are usually injected. […] Kinetic titration experiments are carried out at 25° C. with a flow rate of 30 μl/min, the sample contact time is 180 s, and the dissociation time is 240 s in a running buffer (20 mM HEPES pH7.40, 150 mM NaCl, 5 mM MgCl2, 1 mM DTT, 0.1 mM EDTA, 0.05% Tween 20) comprising 2% of DMSO. Buffer injections (as double references) identical to the sample injections are carried out in each case at the beginning of a continuous series. Solvent correction cycles (eight correction points, 1.4%-2.8% DMSO) are carried out at equal intervals. In order to condition the surface, at least five start-up cycles (buffer injections) are carried out. Data points are collected with a sample rate of 10 Hz. Surface regeneration is carried out after each measurement cycle, apart from after the solvent correction runs. For this purpose, two times 100 mM NaHCO3 pH 8.60 are injected for 30 sec. Data sets are processed and analysed using the Biacore S51 Evaluation software, version 1.2.1, or Biacore T100 Evaluation, version 2.0. Solvent-corrected and double-referenced association and dissociation phase data are adapted to a simple 1:1 interaction model with mass transport limitations.
A general note: Surface plasmon resonance follows binding to a sensor surface in real time, without labels.

The subject of test [4] is PI3K-dependent phosphorylation of PKB at Serin 473 in PC3 cells. Kind of test: Cellular PI3K assay (P-S473-PKB Luminex assay in PC3 cells). It counts as cell-based. Particulars: Homo sapiens, PC-3, 0.5 h; PC3 cells, 30 min, serum-free, P-S473-PKB; read-out: IC50 (cell). The method, then:
The cellular assay for determination of the P-S473-PKB level is carried out as a Luminex assay in 96-well format in PC3 cells.
PC3 cells are sown out with 20,000 cells per well in 100 μl medium (45% […]/45% Ham's F12/10% FCS) and incubated on the following day for 30 min with a serial dilution of the test substance (7 concentrations) under serum-free conditions. The cells are subsequently lysed using 90 μl of lysis buffer (20 mM Tris/HCl pH 8.0, 150 mM NaCl, 1% NP40, 10% glycerol, 1% phosphatase inhibitor I, 1% phosphatase inhibitor II, 0.1% protease inhibitor cocktail III, 0.01% benzonase) per well, and the lysates are separated off from insoluble cell constituents by means of centrifugation through a 96-well filter plate (0.65 μm). The lysates are incubated overnight at 4° C. with shaking with Luminex beads to which an anti-total PKB antibody is coupled. The detection is carried out on the following day by addition of a P-S473-PKB antibody and a species-specific PE-labelled secondary antibody. The detection of P-S473-PKB is carried out by measurement in a Luminex100 instrument by determination of 100 events per cavity in a measurement time of 60 sec.

The target in test [5] is DNA-PK protein complex (Homo sapiens, UniProt P78527). Kind of test: Biochemical DNA-PK assay (FlashPlate). On the procedure:
The kinase assay is carried out in […] microtitre FlashPlates®, coated with streptavidin. […] The reaction is stopped by addition of 50 μl/well of 200 mM EDTA. After incubation for 30 minutes, the liquids are removed at room temperature. Each well is washed three times with 100 μl of 0.9% NaCl solution. Non-specific reaction (blank) is determined using a proprietary kinase inhibitor (10 μM). The radioactivity is measured by means of a Topcount. […] Todd Eary, J. G. Schiro, H. Huang, L. E. Burgess, E. A. Kesicki, and J. Halbrook.

Chain of PI3Kalpha (P42336 whole entry): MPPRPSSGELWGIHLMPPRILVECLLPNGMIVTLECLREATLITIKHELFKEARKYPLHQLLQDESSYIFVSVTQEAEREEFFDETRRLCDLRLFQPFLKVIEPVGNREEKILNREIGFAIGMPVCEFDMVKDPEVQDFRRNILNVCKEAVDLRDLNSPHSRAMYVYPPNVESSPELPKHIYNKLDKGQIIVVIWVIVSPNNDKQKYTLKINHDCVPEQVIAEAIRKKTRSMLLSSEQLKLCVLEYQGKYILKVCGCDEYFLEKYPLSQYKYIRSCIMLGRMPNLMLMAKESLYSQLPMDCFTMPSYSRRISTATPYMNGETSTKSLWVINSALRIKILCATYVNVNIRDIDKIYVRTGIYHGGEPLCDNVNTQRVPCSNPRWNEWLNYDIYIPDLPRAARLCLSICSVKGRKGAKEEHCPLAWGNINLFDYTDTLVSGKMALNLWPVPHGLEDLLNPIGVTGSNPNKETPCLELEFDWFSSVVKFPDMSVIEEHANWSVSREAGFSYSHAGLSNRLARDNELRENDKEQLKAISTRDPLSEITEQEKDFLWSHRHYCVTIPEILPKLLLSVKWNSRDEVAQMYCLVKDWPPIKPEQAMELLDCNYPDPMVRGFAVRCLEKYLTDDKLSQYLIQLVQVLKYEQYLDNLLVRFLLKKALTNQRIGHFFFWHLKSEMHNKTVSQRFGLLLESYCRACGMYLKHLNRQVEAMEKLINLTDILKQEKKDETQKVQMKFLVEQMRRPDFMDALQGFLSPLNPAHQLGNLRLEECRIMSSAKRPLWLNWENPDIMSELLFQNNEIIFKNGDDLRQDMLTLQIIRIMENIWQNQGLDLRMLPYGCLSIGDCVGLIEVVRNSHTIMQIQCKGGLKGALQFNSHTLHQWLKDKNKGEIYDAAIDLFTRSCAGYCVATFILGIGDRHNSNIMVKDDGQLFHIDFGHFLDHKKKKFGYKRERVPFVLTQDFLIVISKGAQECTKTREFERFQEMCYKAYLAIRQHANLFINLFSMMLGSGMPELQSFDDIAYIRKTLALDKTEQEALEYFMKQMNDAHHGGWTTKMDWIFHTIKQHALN
Chain of PI3Kalpha (P27986 whole entry partner): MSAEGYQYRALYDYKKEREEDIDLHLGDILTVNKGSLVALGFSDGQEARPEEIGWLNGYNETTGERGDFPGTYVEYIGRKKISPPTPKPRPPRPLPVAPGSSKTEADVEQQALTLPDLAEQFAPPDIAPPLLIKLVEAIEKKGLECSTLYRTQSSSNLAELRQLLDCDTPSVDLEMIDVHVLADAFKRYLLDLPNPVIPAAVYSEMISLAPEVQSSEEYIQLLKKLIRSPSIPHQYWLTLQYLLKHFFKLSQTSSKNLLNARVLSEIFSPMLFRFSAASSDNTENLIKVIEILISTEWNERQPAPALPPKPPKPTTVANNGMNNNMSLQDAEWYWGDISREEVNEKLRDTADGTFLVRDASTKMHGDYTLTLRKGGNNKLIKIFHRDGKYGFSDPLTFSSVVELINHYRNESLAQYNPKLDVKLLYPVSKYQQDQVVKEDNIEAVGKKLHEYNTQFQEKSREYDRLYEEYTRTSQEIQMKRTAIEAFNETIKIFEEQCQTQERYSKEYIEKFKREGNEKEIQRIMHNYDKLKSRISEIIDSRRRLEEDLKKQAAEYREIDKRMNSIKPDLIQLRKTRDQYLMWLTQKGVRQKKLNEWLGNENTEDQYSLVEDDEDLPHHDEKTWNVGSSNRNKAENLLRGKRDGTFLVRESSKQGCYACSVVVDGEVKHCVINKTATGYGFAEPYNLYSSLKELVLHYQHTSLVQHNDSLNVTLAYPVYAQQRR
Chain of recombinant PI3Kalpha (shortened form of the catalytic subunit) (P42336 151-1068 limits assumed): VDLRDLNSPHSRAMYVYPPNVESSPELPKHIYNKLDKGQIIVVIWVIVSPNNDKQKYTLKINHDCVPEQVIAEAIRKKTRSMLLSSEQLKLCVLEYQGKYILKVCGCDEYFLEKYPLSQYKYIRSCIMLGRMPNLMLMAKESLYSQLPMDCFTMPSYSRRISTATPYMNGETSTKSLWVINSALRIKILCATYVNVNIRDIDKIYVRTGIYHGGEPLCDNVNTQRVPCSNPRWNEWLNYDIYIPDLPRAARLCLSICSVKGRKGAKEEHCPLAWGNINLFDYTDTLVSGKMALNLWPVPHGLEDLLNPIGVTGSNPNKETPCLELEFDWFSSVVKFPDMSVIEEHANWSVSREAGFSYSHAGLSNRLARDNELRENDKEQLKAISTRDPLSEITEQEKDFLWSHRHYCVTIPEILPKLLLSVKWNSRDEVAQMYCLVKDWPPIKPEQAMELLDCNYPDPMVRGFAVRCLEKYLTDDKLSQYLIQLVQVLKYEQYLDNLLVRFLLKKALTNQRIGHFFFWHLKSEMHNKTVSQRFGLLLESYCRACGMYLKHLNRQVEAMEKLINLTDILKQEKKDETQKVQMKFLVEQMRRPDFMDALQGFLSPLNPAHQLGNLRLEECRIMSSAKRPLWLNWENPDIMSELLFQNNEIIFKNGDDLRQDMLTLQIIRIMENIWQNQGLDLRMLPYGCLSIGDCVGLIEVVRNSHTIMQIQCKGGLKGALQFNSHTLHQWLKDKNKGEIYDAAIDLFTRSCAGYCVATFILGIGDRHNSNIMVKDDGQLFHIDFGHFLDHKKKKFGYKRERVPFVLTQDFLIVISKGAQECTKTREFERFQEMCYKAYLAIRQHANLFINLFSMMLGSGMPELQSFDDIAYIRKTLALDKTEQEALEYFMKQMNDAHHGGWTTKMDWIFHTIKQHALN
Chain of PI3Kbeta (P42338 whole entry): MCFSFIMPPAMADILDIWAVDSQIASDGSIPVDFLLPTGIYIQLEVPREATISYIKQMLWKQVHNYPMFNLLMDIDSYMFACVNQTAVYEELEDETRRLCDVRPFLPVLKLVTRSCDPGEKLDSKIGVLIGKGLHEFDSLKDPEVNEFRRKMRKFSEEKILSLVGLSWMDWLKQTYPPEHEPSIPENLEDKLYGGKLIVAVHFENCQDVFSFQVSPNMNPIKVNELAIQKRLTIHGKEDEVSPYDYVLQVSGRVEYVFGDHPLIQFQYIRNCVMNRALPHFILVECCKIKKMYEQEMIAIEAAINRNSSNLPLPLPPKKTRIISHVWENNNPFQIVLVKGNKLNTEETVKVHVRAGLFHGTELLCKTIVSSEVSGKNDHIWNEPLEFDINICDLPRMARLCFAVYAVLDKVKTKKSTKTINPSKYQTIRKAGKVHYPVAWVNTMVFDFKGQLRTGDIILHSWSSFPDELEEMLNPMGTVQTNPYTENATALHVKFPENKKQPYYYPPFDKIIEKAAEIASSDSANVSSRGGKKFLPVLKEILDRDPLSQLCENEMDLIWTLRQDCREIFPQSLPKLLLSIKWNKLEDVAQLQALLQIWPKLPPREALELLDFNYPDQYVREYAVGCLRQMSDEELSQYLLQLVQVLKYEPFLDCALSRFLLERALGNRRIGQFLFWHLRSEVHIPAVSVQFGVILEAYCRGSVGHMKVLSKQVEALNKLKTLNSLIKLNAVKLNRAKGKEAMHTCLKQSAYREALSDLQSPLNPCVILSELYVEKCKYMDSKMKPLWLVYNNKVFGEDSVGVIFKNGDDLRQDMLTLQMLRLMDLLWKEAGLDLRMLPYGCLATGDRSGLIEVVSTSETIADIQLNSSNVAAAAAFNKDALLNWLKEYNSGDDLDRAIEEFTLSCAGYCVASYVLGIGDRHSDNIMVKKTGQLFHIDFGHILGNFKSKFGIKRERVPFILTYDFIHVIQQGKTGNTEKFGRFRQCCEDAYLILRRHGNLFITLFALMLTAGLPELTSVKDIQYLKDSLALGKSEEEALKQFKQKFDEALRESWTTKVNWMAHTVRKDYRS
Chain of PI3Kbeta (P27986 whole entry partner): as the sequence (P27986 whole entry partner) above

As to `COc1ccc(-c2ccnc(-c3c[nH]c(=O)n3-c3ccc(N4CCNCC4)c(C(F)(F)F)c3)c2)cn1` [Example A4, 5-(6-Methoxy-[3,4′]bipyridinyl-2′-yl)-1-(4-piperazin-1-yl-3-trifluoromethylphenyl)-1,3-dihydroimidazol-2-one], the pIC50 in test [1], in test [2], in test [4] and in test [5] was 5.00 to 7.00 throughout. Also, in test [3], the negative logarithm of the Kd (pKd) was 5.00 to 7.00.
Take `Cn1cc(-c2cc(-c3cnc4ccccc4c3)ccn2)n(-c2ccc(N3CCNCC3)c(C(F)(F)F)c2)c1=O` [Example A19, 1-Methyl-3-(4-piperazin-1-yl-3-trifluoromethylphenyl)-4-(4-quinolin-3-ylpyridin-2-yl)-1,3-dihydroimidazol-2-one]: the negative logarithm of the IC50 (pIC50) in test [1], in test [2], in test [4] and in test [5] was 5.00 to 7.00 throughout. Further, in test [3], the negative logarithm of the Kd (pKd) was 5.00 to 7.00.
Turning to `CC(C)(C#N)c1ccc(-n2c(-c3cc(-c4cnc5[nH]ccc5c4)ccn3)c[nH]c2=O)cc1` [Example A28, 2-Methyl-2-(4-{2-oxo-5-[4-(1H-pyrrolo[2,3-b]pyridin-5-yl)pyridin-2-yl]-2,3-dihydroimidazol-1-yl}phenyl)propionitrile], the negative logarithm of the IC50 (pIC50) in test [1] is 7.00 to 10.00; in test [2], 5.00 to 7.00; in test [4], 5.00 to 7.00; in test [5], 7.00 to 10.00. The pKd in test [3] was 7.00 to 10.00.
In the case of `COC(=O)c1c[nH]c2ncc(-c3ccnc(-c4cn(C)c(=O)n4-c4ccc(C(C)(C)C#N)cc4)c3)cc12` [Example A29, Methyl 5-(2-{3-[4-(cyanodimethylmethyl)phenyl]-1-methyl-2-oxo-2,3-dihydro-1H-imidazol-4-yl}pyridin-4-yl)-1H-pyrrolo[2,3-b]pyridine-3-carboxylate], the negative logarithm of the IC50 (pIC50) in test [1] was 7.00 to 10.00; in test [2] it was 5.00 to 7.00; in test [4], 5.00 to 7.00; in test [5] it was 7.00 to 10.00. For the same compound, the negative-log Kd (pKd) in test [3] was 7.00 to 10.00.
As for `Cn1cc(-c2cc(-c3cnc4[nH]ccc4c3)ccn2)n(-c2ccc(C(C)(C)C(=O)O)cc2)c1=O` [Example A33, 2-Methyl-2-(4-{3-methyl-2-oxo-5-[4-(1H-pyrrolo[2,3-b]pyridin-5-yl)pyridin-2-yl]-2,3-dihydroimidazol-1-yl}phenyl)propionic acid], the negative-log IC50 (pIC50) in test [1] was 5.00 to 7.00; in test [2], 5.00 to 7.00; in test [4], less than 5.00; in test [5], 7.00 to 10.00. Besides, the pKd in test [3] is 7.00 to 10.00.
For the compound `Cn1cc(-c2cc(-c3cnc(N)c(C#N)c3)ccn2)n(-c2ccc(C(C)(C)C#N)cc2)c1=O` [Example A37, 6-Amino-2′-{3-[4-(cyanodimethylmethyl)phenyl]-1-methyl-2-oxo-2,3-dihydro-1H-imidazol-4-yl}-[3,4′]bipyridinyl-5-carbonitrile], the negative-log IC50 (pIC50) in test [1] was 5.00 to 7.00; in test [2], 5.00 to 7.00; in test [4], 5.00 to 7.00; in test [5], 7.00 to 10.00. Moreover, the negative logarithm of the Kd (pKd) in test [3] is 7.00 to 10.00.
As to `Cn1cc(-c2cc(-c3cnc4[nH]cnc4c3)ccn2)n(-c2ccc(C(C)(C)C#N)cc2)c1=O` [Example A38, 2-(4-{5-[4-(3H-Imidazo[4,5-b]pyridin-6-yl)pyridin-2-yl]-3-methyl-2-oxo-2,3-dihydroimidazol-1-yl}phenyl)-2-methylpropionitrile], the pIC50 in test [1] is 7.00 to 10.00; in test [2] it was 5.00 to 7.00; in test [4] it was 5.00 to 7.00; in test [5] it was 5.00 to 7.00. Also, the pKd in test [3] is 7.00 to 10.00.
For the compound `Cn1cc(-c2cc(-c3cnc4[nH]ccc4c3)ccn2)n(-c2ccc(C#N)cc2)c1=O` [Example A48, 4-{3-Methyl-2-oxo-5-[4-(1H-pyrrolo[2,3-b]pyridin-5-yl)pyridin-2-yl]-2,3-dihydro-imidazol-1-yl}benzonitrile], the negative logarithm of the IC50 (pIC50) in test [1] was 5.00 to 7.00; in test [2], 5.00 to 7.00; in test [4], 5.00 to 7.00; in test [5], 7.00 to 10.00. In addition, the pKd in test [3] is 5.00 to 7.00.
